The source of these data is patent US20230158102A1 (priority 2020, published 2023).

Data set [1] deals with HIV-1 (recombinant virus NL4.3 Luc). Description: microbe, parasite or virus in culture. Format: cell-based.
Data set [2] has the same test system. Description: microbe, parasite or virus in culture. Conditions: for IC50: Human immunodeficiency virus 1, PBMC. Format: cell-based.
In another data set the test system is HCoV-229E. In kind it is cell-based.

The structures appear in SMILES notation. Like-named read-outs stand apart in the source and are kept apart here. Numbered stars: 1 amine (or outer) side, 2 acyl side, 3 side chain; on linkers, the order of the positions; unused ones are H or OH. Bridge positions count the residues as written; N and C are the ends. Square brackets hold non-standard residues; d marks the D form. Peptide text beside a SMILES is read from it. * marks the point of attachment. Benzothiophen(2-yl)carbonyl = O=C(c1cc2ccccc2s1)*; X2 = CC[C@H](C)[C@@H](N[*:1])[C@@H](O)CC(=O)[*:2]; NMeY = CN[C@@H](Cc1ccc(O)cc1)C(=O)O; dNMeL = CN[C@H](CC(C)C)C(=O)O; Tos = Cc1ccc(S(=O)(=O)*)cc1; Hiv = CC(C)[C@H](O)C(=O)O

In the case of `CC[C@H](C)[C@H]1NC(=O)[C@@H](NC(=O)[C@H](CC(C)C)N(C)C(=O)[C@@H]2CCCN2C(=O)C(C)=O)[C@@H](C)OC(=O)[C@H](Cc2ccc(OC)cc2)N(C)C(=O)[C@@H]2CCCN2C(=O)[C@H](CC(C)C)NC(=O)[C@@H](C)C(=O)[C@H](C(C)C)OC(=O)C[C@@H]1O` [Compound 8], the Antiviral activity entry in data set [1] (MT-2 cells) and in data set [2] (PBMCs) was “showed also antiviral activity” each time. Moreover, the “IC50 value, fold lower than the specific concentration of 10 μM” value in data set [1] (MT-2 cells and PBMCs, not told apart) turned out to be 100 fold. The “Specificity of antiviral activity” value in data set [1] (at 10 μM, MT-2 cells and PBMCs, not told apart) is recorded as “specific”; in data set [1] (at 50 μM, MT-2 cells and PBMCs, not told apart), “non-specific”.
In the case of `CC[C@H](C)[C@H]1NC(=O)[C@@H](NC(=O)[C@@H](CC(C)C)N(C)C(=O)c2cc3ccccc3s2)[C@@H](C)OC(=O)[C@H](Cc2ccc(OC)cc2)N(C)C(=O)[C@@H]2CCCN2C(=O)[C@H](CC(C)C)NC(=O)[C@H](C(C)C)OC(=O)C[C@@H]1O` [Compound 10] ({Benzothiophen(2-yl)carbonyl}-[dNMeL]T[X2][Hiv]LP[NMeY](Me); ester 2-C), the “Antiviral activity (fluorescence images)” value in the data set with HCoV-229E was “remarkable antiviral properties are seen across all concentrations”. In data set [2], the concentration for half-maximal inhibition (IC50) – broadly, the concentration at which inhibition is half-maximal – is 0.86 nM. The “Cell growth / viability (fluorescence images)” value with Huh-7 cells (Huh-7, 50 nM, 5 nM and 0.5 nM, 24 hpi) was “cells remain viable at all concentrations”.
For the compound `CC[C@H](C)[C@H]1NC(=O)[C@@H](NC(=O)[C@@H](CC(C)C)N(C)C(=O)[C@@H]2CCCN2C(=O)[C@H](C)NC(=O)[C@@H](Cc2ccccc2)NC(=O)OC(C)(C)C)[C@@H](C)OC(=O)[C@H](Cc2ccc(OC)cc2)N(C)C(=O)[C@@H]2CCCN2C(=O)[C@H](CC(C)C)NC(=O)[C@@H](C)C(=O)[C@H](C(C)C)OC(=O)C[C@@H]1O` [Compound 9], the “Antiviral activity (fluorescence images)” value in the data set on HCoV-229E is recorded as “remarkable antiviral properties are seen across all concentrations”. Also, in data set [2] (PBMCs, read-out: IC50), the IC50 is 0.63 nM. Also, in the data set on Huh-7 cells, the “Cell growth / viability (fluorescence images)” value was “cells remain viable at all concentrations”.
`CC[C@H](C)[C@H]1NC(=O)[C@@H](NC(=O)[C@@H](CC(C)C)N(C)S(=O)(=O)c2ccc(C)cc2)[C@@H](C)OC(=O)[C@H](Cc2ccc(OC)cc2)N(C)C(=O)[C@@H]2CCCN2C(=O)[C@H](CC(C)C)NC(=O)[C@H](C(C)C)OC(=O)C[C@@H]1O` [Compound 11] (Tos-[dNMeL]T[X2][Hiv]LP[NMeY](Me); ester 2-C): in data set [2], the IC50 worked out at 69.4 nM.
